Laboratory results: PubChem BioAssay AID1259407 (Chemical Carcinogenesis Research Information System (CCRIS), 2018)
Active and inactive are the calls of the source. How the calls were made is not given here.

Tested on: CCRIS mutagenicity, Ames/micronucleus/aberration tests
Experiment: CCRIS mutagenicity studies
[1] = Test System: AMES SALMONELLA TYPHIMURIUM, Strain/Indicator: TA98, Metabolic Activation: NONE, Method: PREINCUBATION

CCn1cc(C(=O)O)c(=O)c2ccc(C)nc21
mutagenic call (End Point: In vitro micronucleus, Test System: WTK-1 human lymphoma cells, Metabolic Activation: None): inactive; negative
mutagenic call (Test System: AMES SALMONELLA TYPHIMURIUM, Strain/Indicator: TA97, Metabolic Activation: HAMSTER, LIVER, S-9, AROCLOR 1254 (10% OR 30%), Method: PREINCUBATION): inactive; negative
mutagenic call (Test System: AMES SALMONELLA TYPHIMURIUM, Strain/Indicator: TA97, Metabolic Activation: HAMSTER, LIVER, S-9, AROCLOR 1254 (10 OR 30%), Method: PREINCUBATION): inactive; negative
mutagenic call (Test System: AMES SALMONELLA TYPHIMURIUM, Strain/Indicator: TA97, Metabolic Activation: NONE, Method: PREINCUBATION): inactive; negative
mutagenic call (Test System: AMES SALMONELLA TYPHIMURIUM, Strain/Indicator: TA97, Metabolic Activation: RAT, LIVER, S-9, AROCLOR 1254 (10% OR 30%), Method: PREINCUBATION): inactive; negative
mutagenic call (Test System: AMES SALMONELLA TYPHIMURIUM, Strain/Indicator: TA97, Metabolic Activation: RAT, LIVER, S-9, AROCLOR 1254 (10 OR 30%), Method: PREINCUBATION): inactive; negative
mutagenic call (Test System: AMES SALMONELLA TYPHIMURIUM, Strain/Indicator: TA98, Metabolic Activation: HAMSTER, LIVER, S-9, AROCLOR 1254 (10% OR 30%), Method: PREINCUBATION): inactive; negative
mutagenic call (Test System: AMES SALMONELLA TYPHIMURIUM, Strain/Indicator: TA98, Metabolic Activation: HAMSTER, LIVER, S-9, AROCLOR 1254 (10 OR 30%), Method: PREINCUBATION): inactive; negative
mutagenic call [1]: inactive; negative
mutagenic call (Test System: AMES SALMONELLA TYPHIMURIUM, Strain/Indicator: TA98, Metabolic Activation: RAT, LIVER, S-9, AROCLOR 1254 (10% OR 30%), Method: PREINCUBATION): inactive; negative
mutagenic call (Test System: AMES SALMONELLA TYPHIMURIUM, Strain/Indicator: TA98, Metabolic Activation: RAT, LIVER, S-9, AROCLOR 1254 (10 OR 30%), Method: PREINCUBATION): inactive; negative
mutagenic call (Test System: AMES SALMONELLA TYPHIMURIUM, Strain/Indicator: TA100, Metabolic Activation: HAMSTER, LIVER, S-9, AROCLOR 1254 (10%), Method: PREINCUBATION): inactive; negative
mutagenic call (Test System: AMES SALMONELLA TYPHIMURIUM, Strain/Indicator: TA100, Metabolic Activation: HAMSTER, LIVER, S-9, AROCLOR 1254 (30%), Method: PREINCUBATION): inactive; negative
mutagenic call (Test System: AMES SALMONELLA TYPHIMURIUM, Strain/Indicator: TA100, Metabolic Activation: NONE, Method: PREINCUBATION): inactive; negative
mutagenic call (Test System: AMES SALMONELLA TYPHIMURIUM, Strain/Indicator: TA100, Metabolic Activation: RAT, LIVER, S-9, AROCLOR 1254 (10% OR 30%), Method: PREINCUBATION): inactive; negative
mutagenic call (Test System: AMES SALMONELLA TYPHIMURIUM, Strain/Indicator: TA100, Metabolic Activation: RAT, LIVER, S-9, AROCLOR 1254 (10 OR 30%), Method: PREINCUBATION): inactive; negative
mutagenic call (Test System: AMES SALMONELLA TYPHIMURIUM, Strain/Indicator: TA102, Metabolic Activation: NONE, Method: STANDARD PLATE): active; positive
mutagenic call (Test System: AMES SALMONELLA TYPHIMURIUM, Strain/Indicator: TA1535, Metabolic Activation: HAMSTER, LIVER, S-9, AROCLOR 1254 (10% OR 30%), Method: PREINCUBATION): inactive; negative
mutagenic call (Test System: AMES SALMONELLA TYPHIMURIUM, Strain/Indicator: TA1535, Metabolic Activation: HAMSTER, LIVER, S-9, AROCLOR 1254 (10 OR 30%), Method: PREINCUBATION): inactive; negative
mutagenic call (Test System: AMES SALMONELLA TYPHIMURIUM, Strain/Indicator: TA1535, Metabolic Activation: NONE, Method: PREINCUBATION): inactive; negative
mutagenic call (Test System: AMES SALMONELLA TYPHIMURIUM, Strain/Indicator: TA1535, Metabolic Activation: RAT, LIVER, S-9, AROCLOR 1254 (10% OR 30%), Method: PREINCUBATION): inactive; negative
mutagenic call (Test System: AMES SALMONELLA TYPHIMURIUM, Strain/Indicator: TA1535, Metabolic Activation: RAT, LIVER, S-9, AROCLOR 1254 (10 OR 30%), Method: PREINCUBATION): inactive; negative
mutagenic call (Test System: AMES SALMONELLA TYPHIMURIUM, Strain/Indicator: TA2638, Metabolic Activation: NONE, Method: STANDARD PLATE): inactive; negative
mutagenic call (Test System: CHINESE HAMSTER V-79, Strain/Indicator: V-79 (HPRT)/6-THIOGUANINE, Metabolic Activation: NONE): inactive; negative
mutagenic call (Test System: E. COLI, Strain/Indicator: WP2 (PKM101), Metabolic Activation: NONE, Method: STANDARD PLATE): active; positive
mutagenic call (Test System: E. COLI, Strain/Indicator: WP2 UVRA (PKM101), Metabolic Activation: NONE, Method: STANDARD PLATE): active; positive
mutagenic call (Test System: MOUSE LYMPHOMA, Strain/Indicator: L5178Y (HPRT)/6-THIOGUANINE, Metabolic Activation: NONE, Method: FLUCTUATION TEST): inactive; negative
mutagenic call (Test System: MOUSE LYMPHOMA, Strain/Indicator: L5178Y (TK+/TK-), Metabolic Activation: NONE, Method: FLUCTUATION TEST): inactive; negative
mutagenic call (Test System: MOUSE LYMPHOMA, Strain/Indicator: L5178Y (TK+/TK-), Metabolic Activation: NONE, Method: SUSPENSION/PLATE): inactive; negative
mutagenic call (Test System: MOUSE LYMPHOMA, Strain/Indicator: L5178Y (TK+/TK-), Metabolic Activation: RAT, LIVER, S-9, AROCLOR 1254, Method: SUSPENSION/PLATE): inactive; negative

CC(=O)N(O)c1ccc(-c2ccccc2)cc1
mutagenic call (Test System: AMES SALMONELLA TYPHIMURIUM, Strain/Indicator: TA98(1,8-DNP6), Metabolic Activation: HUMAN, UROEPITHELIAL CELL, MICROSOMES, Method: PREINCUBATION): inactive; negative
mutagenic call (Test System: AMES SALMONELLA TYPHIMURIUM, Strain/Indicator: TA98(1,8-DNP6), Metabolic Activation: NONE, Method: PREINCUBATION): inactive; negative
mutagenic call (Test System: AMES SALMONELLA TYPHIMURIUM, Strain/Indicator: TA98(1,8-DNP6), Metabolic Activation: RAT, LIVER, S-9, AROCLOR, Method: PREINCUBATION): active; positive
mutagenic call (Test System: AMES SALMONELLA TYPHIMURIUM, Strain/Indicator: TA98, Metabolic Activation: DOG, BLADDER, MICROSOMES, Method: PREINCUBATION): active; positive
mutagenic call (Test System: AMES SALMONELLA TYPHIMURIUM, Strain/Indicator: TA98, Metabolic Activation: DOG, LIVER, MICROSOMES, Method: PREINCUBATION): active; positive
mutagenic call (Test System: AMES SALMONELLA TYPHIMURIUM, Strain/Indicator: TA98, Metabolic Activation: HUMAN, UROEPITHELIAL CELL, CYTOSOL, Method: PREINCUBATION): active; positive
mutagenic call (Test System: AMES SALMONELLA TYPHIMURIUM, Strain/Indicator: TA98, Metabolic Activation: HUMAN, UROEPITHELIAL CELL, MICROSOMES, Method: PREINCUBATION): active; positive
mutagenic call (Test System: AMES SALMONELLA TYPHIMURIUM, Strain/Indicator: TA98, Metabolic Activation: HUMAN, UROEPITHELIAL CELL, S-9, Method: PREINCUBATION): active; positive
mutagenic call [1]: inactive; negative
mutagenic call (Test System: AMES SALMONELLA TYPHIMURIUM, Strain/Indicator: TA98, Metabolic Activation: RAT, BLADDER, MICROSOMES, Method: PREINCUBATION): inactive; negative
mutagenic call (Test System: AMES SALMONELLA TYPHIMURIUM, Strain/Indicator: TA98, Metabolic Activation: RAT, LIVER, CYTOSOL, Method: PREINCUBATION): active; positive
mutagenic call (Test System: AMES SALMONELLA TYPHIMURIUM, Strain/Indicator: TA98, Metabolic Activation: RAT, LIVER, MICROSOMES, Method: PREINCUBATION): active; positive
mutagenic call (Test System: AMES SALMONELLA TYPHIMURIUM, Strain/Indicator: TA98, Metabolic Activation: RAT, LIVER, S-9, AROCLOR, Method: PREINCUBATION): active; positive
mutagenic call (Test System: AMES SALMONELLA TYPHIMURIUM, Strain/Indicator: YG1024, Metabolic Activation: HUMAN, UROEPITHELIAL CELL, MICROSOMES, Method: PREINCUBATION): active; positive
mutagenic call (Test System: UDS HUMAN FIBROBLASTS, Strain/Indicator: THY INCORP (NON-S-PHASE), Metabolic Activation: NONE, Method: AUTORADIOGRAPHY): active; positive

Cc1cc(-c2ccccc2)cc(C)c1N
mutagenic call (Test System: AMES SALMONELLA TYPHIMURIUM, Strain/Indicator: TA98, Metabolic Activation: NONE, Method: STANDARD PLATE): inactive; negative
mutagenic call (Test System: AMES SALMONELLA TYPHIMURIUM, Strain/Indicator: TA98, Metabolic Activation: RAT LIVER S-9, AROCLOR, Method: STANDARD PLATE): active; positive
mutagenic call (Test System: AMES SALMONELLA TYPHIMURIUM, Strain/Indicator: TA100, Metabolic Activation: NONE, Method: STANDARD PLATE): inactive; negative
mutagenic call (Test System: AMES SALMONELLA TYPHIMURIUM, Strain/Indicator: TA100, Metabolic Activation: RAT LIVER S-9, AROCLOR, Method: STANDARD PLATE): active; positive
